Test system: spores of Aspergillus niger and Aspergillus versicolor
Test: ISO 846 Method B: determination of the fungistatic activity of films, complete nutrient medium with carbon source
Assay type: cell-based
Settings: summary of ISO 846 loading tests (methods A and B)
Description: Commercially conventional dispersions based on poly(vinyl alcohol)-stabilized poly(dibutyl maleinate-co-vinyl acetate) were, where necessary, set to the required pH using 10% strength sodium hydroxide solution and subsequently finished with fungicide. In addition, to the dispersion was added either a 1% strength ethanolic solution of the fungicide or an aqueous suspension which had been prepared by weighing out exactly 500 mg of fungicide into a 50 ml measuring flask and subsequently making up to 50 ml with deionized water to the calibration mark. After addition, the substance was distributed well in the dispersion and approximately 200 μm thick films were produced using a drawing frame with wet application of 400 μm.
The action of these films on microorganisms was determined using the method ISO 846.
The samples were applied to a complete nutrient medium (with carbon source) and inoculated with a spore suspension of various fungi. […] Method B is intended to reflect the situation of a surface contamination of the sample in practice (such as dirt or organic deposits).
The inoculum in all the determinations was performed using spores of Aspergillus niger and Aspergillus versicolor.
The samples, after expiry of the incubation period of 28 days, were assessed in methods A and B using the following rating key in accordance with ISO 846 (a, b=individual results of duplicate determination).

Compound: Oc1ccc(/C=C/c2cc(O)cc(O)c2)cc1 [trans-resveratrol, trans-3,5,4′-trihydroxystilbene]
- fungicidal activity in polymer dispersions made into films: exhibits fungicidal activity

From patent publication US20080139650A1, “Fungicidally Active Polymer Dispersions And Use Thereof” (CELANESE EMULSIONS GMBH, priority 2004, published 2008)
